Results taken from patent US9969694B2, “N-(arylalkyl)-N′-pyrazolyl-urea, thiourea, guanidine and cyanoguanidine compounds as TrkA kinase inhibitors” (Array BioPharma Inc., priority 2012, dated 2018).

Columns and labels:
[1] = target: T1, PKCbetaI (Homo sapiens, UniProt P05771); assay: Off-Target Kinase Profiling; type: biochemical; details: 10 μM; ATP near Km
T1 construct: purchased Millipore, Inc. (KinaseProfiler service)
Method: (§1) Representative compounds of the invention (Examples 33 and 10) were tested for off-target kinase activity at a concentration of 10 μM by Millipore, Inc. in their KinaseProfiler™ service against all the kinases available in their full kinase panel. Compounds were run in duplicate at a concentration of ATP near the Km for each individual kinase according to Millipore's specifications. The results are shown in Table B. Data are reported as percent of control (POC) and are the average of the two replicates.

[2] = target: T2, PKCtheta (Homo sapiens, UniProt Q04759); assay: Off-Target Kinase Profiling; type: biochemical; details: 10 μM; ATP near Km
T2 construct: purchased Millipore, Inc. (KinaseProfiler service)
Method: as §1

[3] = target: T3, PDK1 (Homo sapiens, UniProt O15530); assay: Off-Target Kinase Profiling; type: biochemical; details: 10 μM; ATP near Km
T3 construct: purchased Millipore, Inc. (KinaseProfiler service)
Method: as §1

[4] = target: T4, Axl (Homo sapiens, UniProt P30530); assay: Off-Target Kinase Profiling; type: biochemical; details: 10 μM; ATP near Km
T4 construct: purchased Millipore (KinaseProfiler service)
Method: as §1

[5] = target: T5, TAO1 (Homo sapiens, UniProt Q7L7X3); assay: Off-Target Kinase Profiling; type: biochemical; details: 10 μM; ATP near Km
T5 construct: purchased Millipore, Inc. (KinaseProfiler service)
Method: as §1

[6] = target: T6, SRPK1 (Homo sapiens, UniProt Q96SB4); assay: Off-Target Kinase Profiling; type: biochemical; details: 10 μM; ATP near Km
T6 construct: purchased Millipore, Inc. (KinaseProfiler service)
Method: as §1

[7] = target: T7, AMPK(A1/B1/G1) (Homo sapiens, UniProt Q13131); assay: Off-Target Kinase Profiling; type: biochemical; details: 10 μM; ATP near Km
T7 construct: purchased Millipore (KinaseProfiler service)
Method: as §1

[8] = target: T8, Hck (Homo sapiens, UniProt P08631); assay: Off-Target Kinase Profiling; type: biochemical; details: 10 μM; ATP near Km
T8 construct: purchased Millipore, Inc. (KinaseProfiler service)
Method: as §1

[9] = target: T9, ERK2 (Homo sapiens, UniProt P28482); assay: Off-Target Kinase Profiling; type: biochemical; details: 10 μM; ATP near Km
T9 construct: purchased Millipore, Inc. (KinaseProfiler service)
Method: as §1

[10] = target: T10, GRK6 (Homo sapiens, UniProt P43250); assay: Off-Target Kinase Profiling; type: biochemical; details: 10 μM; ATP near Km
T10 construct: purchased Millipore, Inc. (KinaseProfiler service)
Method: as §1

[11] = target: T11, ERK1 (Homo sapiens, UniProt P27361); assay: Off-Target Kinase Profiling; type: biochemical; details: 10 μM; ATP near Km
T11 construct: purchased Millipore, Inc. (KinaseProfiler service)
T11 sequence (P27361 whole entry): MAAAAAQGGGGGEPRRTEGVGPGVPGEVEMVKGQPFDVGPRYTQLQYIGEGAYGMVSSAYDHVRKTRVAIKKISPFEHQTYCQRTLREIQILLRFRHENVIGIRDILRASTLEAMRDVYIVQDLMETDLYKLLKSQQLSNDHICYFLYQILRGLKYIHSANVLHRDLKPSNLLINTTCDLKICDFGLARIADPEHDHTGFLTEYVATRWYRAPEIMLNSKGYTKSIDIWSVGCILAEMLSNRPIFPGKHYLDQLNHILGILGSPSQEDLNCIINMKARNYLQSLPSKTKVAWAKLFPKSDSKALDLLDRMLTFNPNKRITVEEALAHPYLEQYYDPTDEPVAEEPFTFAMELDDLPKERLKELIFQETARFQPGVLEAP
Method: as §1

[12] = target: T12, Fgr (Homo sapiens, UniProt P09769); assay: Off-Target Kinase Profiling; type: biochemical; details: 10 μM; ATP near Km
T12 construct: purchased Millipore, Inc. (KinaseProfiler service)
Method: as §1

[13] = target: T13, LKB1 (Homo sapiens, UniProt Q15831); assay: Off-Target Kinase Profiling; type: biochemical; details: 10 μM; ATP near Km
T13 construct: purchased Millipore, Inc. (KinaseProfiler service)
Method: as §1

[14] = target: T14, AKT2 (Homo sapiens, UniProt P31751); assay: Off-Target Kinase Profiling; type: biochemical; details: 10 μM; ATP near Km
T14 construct: purchased Millipore (KinaseProfiler service)
Method: as §1

[15] = target: T15, ZAP-70 (Homo sapiens, UniProt P43403); assay: Off-Target Kinase Profiling; type: biochemical; details: 10 μM; ATP near Km
T15 construct: purchased Millipore, Inc. (KinaseProfiler service)
T15 sequence (P43403 whole entry): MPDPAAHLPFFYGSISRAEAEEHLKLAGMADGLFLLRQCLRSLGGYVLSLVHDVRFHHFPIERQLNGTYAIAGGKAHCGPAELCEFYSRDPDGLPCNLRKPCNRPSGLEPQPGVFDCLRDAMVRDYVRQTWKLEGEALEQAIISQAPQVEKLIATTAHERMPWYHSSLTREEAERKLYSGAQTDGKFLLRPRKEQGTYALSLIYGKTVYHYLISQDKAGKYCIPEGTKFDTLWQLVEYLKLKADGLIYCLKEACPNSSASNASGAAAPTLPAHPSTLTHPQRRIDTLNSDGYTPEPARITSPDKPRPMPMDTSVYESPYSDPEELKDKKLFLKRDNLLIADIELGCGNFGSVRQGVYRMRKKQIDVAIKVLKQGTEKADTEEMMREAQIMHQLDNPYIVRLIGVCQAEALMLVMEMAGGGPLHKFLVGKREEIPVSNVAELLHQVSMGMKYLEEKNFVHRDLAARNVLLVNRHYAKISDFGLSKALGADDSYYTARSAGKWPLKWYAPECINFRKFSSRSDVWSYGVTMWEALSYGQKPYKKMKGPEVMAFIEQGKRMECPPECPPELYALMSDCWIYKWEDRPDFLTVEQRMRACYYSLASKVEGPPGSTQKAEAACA
Method: as §1

[16] = target: T16, PKD2 (Homo sapiens, UniProt Q9BZL6); assay: Off-Target Kinase Profiling; type: biochemical; details: 10 μM; ATP near Km
T16 construct: purchased Millipore, Inc. (KinaseProfiler service)
Method: as §1

[17] = target: T17, NEK3 (Homo sapiens, UniProt P51956); assay: Off-Target Kinase Profiling; type: biochemical; details: 10 μM; ATP near Km
T17 construct: purchased Millipore, Inc. (KinaseProfiler service)
Method: as §1

[18] = target: T18, DAPK1 (Homo sapiens, UniProt P53355); assay: Off-Target Kinase Profiling; type: biochemical; details: 10 μM; ATP near Km
T18 construct: purchased Millipore, Inc. (KinaseProfiler service)
Method: as §1

[19] = target: T19, Rsk4 (Homo sapiens, UniProt Q9UK32); assay: Off-Target Kinase Profiling; type: biochemical; details: 10 μM; ATP near Km
T19 construct: purchased Millipore, Inc. (KinaseProfiler service)
T19 sequence (Q9UK32 whole entry): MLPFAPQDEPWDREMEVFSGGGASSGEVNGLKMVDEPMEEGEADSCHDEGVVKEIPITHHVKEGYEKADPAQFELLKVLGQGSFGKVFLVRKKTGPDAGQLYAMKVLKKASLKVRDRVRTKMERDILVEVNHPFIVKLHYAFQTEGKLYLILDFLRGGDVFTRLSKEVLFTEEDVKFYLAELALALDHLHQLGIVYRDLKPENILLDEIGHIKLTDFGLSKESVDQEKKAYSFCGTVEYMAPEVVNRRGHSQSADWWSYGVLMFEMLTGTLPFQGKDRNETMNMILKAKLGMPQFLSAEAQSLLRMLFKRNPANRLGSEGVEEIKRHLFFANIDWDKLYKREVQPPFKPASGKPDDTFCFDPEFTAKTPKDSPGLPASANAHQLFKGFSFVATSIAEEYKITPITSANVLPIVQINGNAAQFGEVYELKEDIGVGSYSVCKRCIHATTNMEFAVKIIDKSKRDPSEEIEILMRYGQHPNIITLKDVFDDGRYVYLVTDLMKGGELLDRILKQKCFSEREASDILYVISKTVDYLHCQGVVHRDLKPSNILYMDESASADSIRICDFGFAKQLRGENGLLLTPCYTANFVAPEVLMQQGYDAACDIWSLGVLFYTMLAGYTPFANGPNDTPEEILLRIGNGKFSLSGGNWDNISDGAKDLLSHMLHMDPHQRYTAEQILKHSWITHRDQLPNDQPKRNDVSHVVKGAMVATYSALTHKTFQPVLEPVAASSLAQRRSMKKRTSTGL
Method: as §1

[20] = target: T20, IRAK4 (Homo sapiens, UniProt Q9NWZ3); assay: Off-Target Kinase Profiling; type: biochemical; details: 10 μM; ATP near Km
T20 construct: purchased Millipore, Inc. (KinaseProfiler service)
Method: as §1

[21] = target: T21, BrSK2 (Homo sapiens, UniProt Q8IWQ3); assay: Off-Target Kinase Profiling; type: biochemical; details: 10 μM; ATP near Km
T21 construct: purchased Millipore (KinaseProfiler service)
Method: as §1

[22] = target: T22, EphB1 (Homo sapiens, UniProt P54762); assay: Off-Target Kinase Profiling; type: biochemical; details: 10 μM; ATP near Km
T22 construct: purchased Millipore, Inc. (KinaseProfiler service)
Method: as §1

[23] = target: T23, CDK9/cyclinT1 (Homo sapiens, UniProt P50750); assay: Off-Target Kinase Profiling; type: biochemical; details: 10 μM; ATP near Km
T23 construct: purchased Millipore, Inc. (KinaseProfiler service)
Method: as §1

[24] = target: T24, WNK3 (Homo sapiens, UniProt Q9BYP7); assay: Off-Target Kinase Profiling; type: biochemical; details: 10 μM; ATP near Km
T24 construct: purchased Millipore, Inc. (KinaseProfiler service)
T24 sequence (Q9BYP7 whole entry): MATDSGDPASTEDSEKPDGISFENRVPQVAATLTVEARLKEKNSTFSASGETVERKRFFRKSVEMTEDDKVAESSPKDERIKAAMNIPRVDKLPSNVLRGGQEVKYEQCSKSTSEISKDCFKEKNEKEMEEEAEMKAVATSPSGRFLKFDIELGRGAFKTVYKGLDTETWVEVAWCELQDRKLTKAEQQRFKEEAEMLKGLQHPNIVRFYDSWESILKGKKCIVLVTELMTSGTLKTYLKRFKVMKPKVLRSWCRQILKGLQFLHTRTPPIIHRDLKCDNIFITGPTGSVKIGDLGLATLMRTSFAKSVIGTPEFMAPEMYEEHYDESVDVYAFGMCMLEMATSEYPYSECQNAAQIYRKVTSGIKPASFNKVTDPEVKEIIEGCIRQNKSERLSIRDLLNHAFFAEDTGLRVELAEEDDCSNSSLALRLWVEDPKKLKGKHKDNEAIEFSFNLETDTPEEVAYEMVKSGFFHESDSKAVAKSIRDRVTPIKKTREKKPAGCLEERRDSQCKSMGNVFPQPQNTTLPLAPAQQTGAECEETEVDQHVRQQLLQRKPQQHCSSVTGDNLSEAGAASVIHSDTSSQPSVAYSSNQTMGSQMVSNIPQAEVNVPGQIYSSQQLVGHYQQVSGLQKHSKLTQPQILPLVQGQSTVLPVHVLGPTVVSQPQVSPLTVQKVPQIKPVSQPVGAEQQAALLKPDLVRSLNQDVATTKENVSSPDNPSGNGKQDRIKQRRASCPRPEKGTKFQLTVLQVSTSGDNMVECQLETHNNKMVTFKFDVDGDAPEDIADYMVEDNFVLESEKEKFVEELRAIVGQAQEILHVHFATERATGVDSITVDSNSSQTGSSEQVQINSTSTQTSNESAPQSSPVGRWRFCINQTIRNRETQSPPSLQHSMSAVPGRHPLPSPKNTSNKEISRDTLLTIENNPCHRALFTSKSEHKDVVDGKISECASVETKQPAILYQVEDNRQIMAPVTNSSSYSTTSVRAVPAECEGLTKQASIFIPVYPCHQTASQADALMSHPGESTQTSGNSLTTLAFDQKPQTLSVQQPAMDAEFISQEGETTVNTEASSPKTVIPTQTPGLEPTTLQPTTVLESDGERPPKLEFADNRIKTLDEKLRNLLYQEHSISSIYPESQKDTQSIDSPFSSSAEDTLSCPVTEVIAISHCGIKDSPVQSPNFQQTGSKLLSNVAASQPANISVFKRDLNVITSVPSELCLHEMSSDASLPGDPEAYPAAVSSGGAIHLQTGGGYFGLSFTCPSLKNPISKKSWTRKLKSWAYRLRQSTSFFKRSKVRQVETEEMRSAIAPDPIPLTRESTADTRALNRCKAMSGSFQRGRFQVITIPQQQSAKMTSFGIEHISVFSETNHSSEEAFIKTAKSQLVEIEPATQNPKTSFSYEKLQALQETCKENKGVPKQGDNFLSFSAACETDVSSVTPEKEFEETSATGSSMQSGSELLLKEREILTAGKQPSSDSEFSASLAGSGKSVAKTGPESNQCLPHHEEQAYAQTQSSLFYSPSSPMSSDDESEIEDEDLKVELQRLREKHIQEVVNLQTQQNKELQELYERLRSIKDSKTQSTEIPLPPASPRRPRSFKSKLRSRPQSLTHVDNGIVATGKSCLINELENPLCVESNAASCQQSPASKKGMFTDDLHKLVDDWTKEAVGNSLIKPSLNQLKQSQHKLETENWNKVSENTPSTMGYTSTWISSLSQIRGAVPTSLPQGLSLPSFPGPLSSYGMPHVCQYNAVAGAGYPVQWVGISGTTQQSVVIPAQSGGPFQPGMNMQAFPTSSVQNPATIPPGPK
Method: as §1

[25] = target: T25, EphA2 (Homo sapiens, UniProt P29317); assay: Off-Target Kinase Profiling; type: biochemical; details: 10 μM; ATP near Km
T25 construct: purchased Millipore, Inc. (KinaseProfiler service)
Method: as §1

[26] = target: T26, IGF-1R (Homo sapiens, UniProt P08069); assay: Off-Target Kinase Profiling; type: biochemical; details: 10 μM; ATP near Km
T26 construct: purchased Millipore, Inc. (KinaseProfiler service)
Method: as §1

[27] = target: T27, MSSK1 (Homo sapiens, UniProt Q9UPE1); assay: Off-Target Kinase Profiling; type: biochemical; details: 10 μM; ATP near Km
T27 construct: purchased Millipore, Inc. (KinaseProfiler service)
Method: as §1

[28] = target: T28, EphA4 (Homo sapiens, UniProt P54764); assay: Off-Target Kinase Profiling; type: biochemical; details: 10 μM; ATP near Km
T28 construct: purchased Millipore, Inc. (KinaseProfiler service)
Method: as §1

[29] = target: T29, MST2 (Homo sapiens, UniProt Q13188); assay: Off-Target Kinase Profiling; type: biochemical; details: 10 μM; ATP near Km
T29 construct: purchased Millipore, Inc. (KinaseProfiler service)
T29 sequence (Q13188 whole entry): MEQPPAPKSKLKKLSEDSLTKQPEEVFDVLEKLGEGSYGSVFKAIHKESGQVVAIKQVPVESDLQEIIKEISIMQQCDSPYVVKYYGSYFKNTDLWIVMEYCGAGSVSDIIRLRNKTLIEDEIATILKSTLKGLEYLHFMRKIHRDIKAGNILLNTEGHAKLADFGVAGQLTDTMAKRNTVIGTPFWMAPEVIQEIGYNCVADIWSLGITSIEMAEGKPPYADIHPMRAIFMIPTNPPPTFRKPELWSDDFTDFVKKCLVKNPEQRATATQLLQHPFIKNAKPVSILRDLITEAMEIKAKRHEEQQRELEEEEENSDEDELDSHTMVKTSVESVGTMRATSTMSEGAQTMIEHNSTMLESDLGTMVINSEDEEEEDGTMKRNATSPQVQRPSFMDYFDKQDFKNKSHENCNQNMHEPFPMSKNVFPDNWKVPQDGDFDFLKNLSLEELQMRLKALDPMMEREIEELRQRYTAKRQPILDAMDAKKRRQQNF
Method: as §1

[30] = target: T30, NEK2 (Homo sapiens, UniProt P51955); assay: Off-Target Kinase Profiling; type: biochemical; details: 10 μM; ATP near Km
T30 construct: purchased Millipore, Inc. (KinaseProfiler service)
T30 sequence (P51955 whole entry): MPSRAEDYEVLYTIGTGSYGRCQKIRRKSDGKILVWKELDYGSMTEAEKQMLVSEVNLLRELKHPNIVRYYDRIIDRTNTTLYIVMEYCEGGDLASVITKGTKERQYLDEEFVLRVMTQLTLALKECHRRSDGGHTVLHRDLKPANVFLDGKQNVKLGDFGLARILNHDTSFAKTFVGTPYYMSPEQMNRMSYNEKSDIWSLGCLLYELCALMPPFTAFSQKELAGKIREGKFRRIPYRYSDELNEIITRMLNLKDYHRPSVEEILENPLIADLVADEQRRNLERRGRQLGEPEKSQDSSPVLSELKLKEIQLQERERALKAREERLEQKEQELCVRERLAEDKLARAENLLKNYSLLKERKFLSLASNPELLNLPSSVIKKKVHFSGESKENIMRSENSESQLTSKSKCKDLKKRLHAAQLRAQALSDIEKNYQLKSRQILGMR
Method: as §1

[31] = target: T31, PAK4 (Homo sapiens, UniProt O96013); assay: Off-Target Kinase Profiling; type: biochemical; details: 10 μM; ATP near Km
T31 construct: purchased Millipore, Inc. (KinaseProfiler service)
T31 sequence (O96013 whole entry): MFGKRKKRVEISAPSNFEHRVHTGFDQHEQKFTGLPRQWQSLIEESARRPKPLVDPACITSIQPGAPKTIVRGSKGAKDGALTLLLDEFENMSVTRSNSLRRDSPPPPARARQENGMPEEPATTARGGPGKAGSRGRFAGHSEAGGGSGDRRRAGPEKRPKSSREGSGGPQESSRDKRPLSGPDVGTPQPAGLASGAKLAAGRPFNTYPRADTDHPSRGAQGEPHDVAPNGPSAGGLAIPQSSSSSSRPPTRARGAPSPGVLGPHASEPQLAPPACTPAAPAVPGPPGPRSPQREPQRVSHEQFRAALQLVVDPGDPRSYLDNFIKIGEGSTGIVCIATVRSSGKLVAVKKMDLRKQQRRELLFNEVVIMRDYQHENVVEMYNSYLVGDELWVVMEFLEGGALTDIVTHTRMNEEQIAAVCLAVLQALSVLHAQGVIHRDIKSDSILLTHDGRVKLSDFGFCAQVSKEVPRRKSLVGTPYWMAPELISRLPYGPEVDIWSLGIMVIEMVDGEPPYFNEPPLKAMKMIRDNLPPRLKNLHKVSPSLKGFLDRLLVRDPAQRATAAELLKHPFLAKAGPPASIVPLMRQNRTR
Method: as §1

[32] = target: T32, His-tagged recombinant human TrkA (Homo sapiens, UniProt P04629); assay: TrkA Kinase Binding Assay (LanthaScreen Eu); details: averaged IC50; TR-FRET binding, 60 min, 22° C.; read-out: TrkA Enzyme IC50
T32 construct: 6HIS tagged cytoplasmic domain from Invitrogen, Catalog No. PV3144; purchased Invitrogen PV3144
How it was run: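 TR-FRET tracer displacement: 5 nM His-tagged TrkA cytoplasmic domain with 4 nM Tracer 236, biotinylated anti-His and Eu-streptavidin in pH 7.5 MOPS buffer, 2% DMSO, 60 min at 22 °C. 665/615 nm emission ratio gave percent of control; IC50 from four-parameter fit.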

Avg POC PKCbetaI [1] [POC]	Avg POC PKCtheta [2] [POC]	Avg POC PDK1 [3] [POC]	Avg POC Axl [4] [POC]	Avg POC TAO1 [5] [POC]	Avg POC SRPK1 [6] [POC]	Avg POC AMPK(A1/B1/G1) [7] [POC]	Avg POC Hck [8] [POC]	Avg POC ERK2 [9] [POC]	Avg POC GRK6 [10] [POC]	Avg POC ERK1 [11] [POC]	Avg POC Fgr [12] [POC]	Avg POC LKB1 [13] [POC]	Avg POC AKT2 [14] [POC]	Avg POC ZAP-70 [15] [POC]	Avg POC PKD2 [16] [POC]	Avg POC NEK3 [17] [POC]	Avg POC DAPK1 [18] [POC]	Avg POC Rsk4 [19] [POC]	Avg POC IRAK4 [20] [POC]	SMILES	also measured
104.5	94	120.5	104.5	111	116	111.5	67	104	97.5	89.5	97	89.5	142	120.5	106	97.5	98	87	122.5	COCc1ccc(C2CCC2)c(CNC(=O)Nc2c(C)c(-c3cnc(C)nc3)nn2-c2ccccc2)c1 [Example 10, 1-(2-cyclobutyl-5-(methoxymethyl)benzyl)-3-(4-methyl-3-(2-methylpyrimidin-5-yl)-1-phenyl-1H-pyrazol-5-yl)urea]	Avg POC BrSK2 [21]: 95 POC; Avg POC EphB1 [22]: 131 POC; Avg POC CDK9/cyclinT1 [23]: 98 POC; Avg POC WNK3 [24]: 101.5 POC; Avg POC EphA2 [25]: 103 POC; Avg POC IGF-1R [26]: 82 POC; Avg POC MSSK1 [27]: 112 POC; Avg POC EphA4 [28]: 105.5 POC; Avg POC MST2 [29]: 97.5 POC; Avg POC NEK2 [30]: 98 POC; Avg POC PAK4 [31]: 102.5 POC; IC50 [32]: < 100 nM
111.5	112.5	126.5	117	118.5	113.5	147.5	140	117	99	95.5	121	90	199	149	106	115.5	141.5	95	109.5	COCc1ccc(C(F)(F)F)c(CNC(=O)Nc2c(C)c(-c3cnn(C)c3)nn2-c2ccccc2)c1 [Example 33, 1-(1′,4-dimethyl-1-phenyl-1H,1′H-[3,4′-bipyrazol]-5-yl)-3-(5-(methoxymethyl)-2-(trifluoromethyl)benzyl)urea]	Avg POC BrSK2 [21]: 145.5 POC; Avg POC EphB1 [22]: 133 POC; Avg POC CDK9/cyclinT1 [23]: 108 POC; Avg POC WNK3 [24]: 111 POC; Avg POC EphA2 [25]: 126.5 POC; Avg POC IGF-1R [26]: 44 POC; Avg POC MSSK1 [27]: 138.5 POC; Avg POC EphA4 [28]: 120 POC; Avg POC MST2 [29]: 98 POC; Avg POC NEK2 [30]: 96 POC; Avg POC PAK4 [31]: 108.5 POC; IC50 [32]: < 100 nM
